Assay results published in PMC10130320, “Extracellular enzymes secreted in the mycelial block of Lentinula edodes during hyphal growth” (AMB Express, 2023).
Where a name gives a salt, the structure may show the parent alone.

How the values were obtained:
[1] = molecular target: T1, Lcc5 (Lentinula edodes, UniProt R9WU11); test: ABTS oxidation, absorbance at […] nm; format: biochemical; conditions: 1.25 mM ABTS; 50 mM sodium citrate pH 3.0; partially purified fraction P1-1
T1 construct: native, partially purified from sawdust medium (fraction P1-1), 68 kDa on SDS-PAGE
T1 sequence (R9WU11 22-515): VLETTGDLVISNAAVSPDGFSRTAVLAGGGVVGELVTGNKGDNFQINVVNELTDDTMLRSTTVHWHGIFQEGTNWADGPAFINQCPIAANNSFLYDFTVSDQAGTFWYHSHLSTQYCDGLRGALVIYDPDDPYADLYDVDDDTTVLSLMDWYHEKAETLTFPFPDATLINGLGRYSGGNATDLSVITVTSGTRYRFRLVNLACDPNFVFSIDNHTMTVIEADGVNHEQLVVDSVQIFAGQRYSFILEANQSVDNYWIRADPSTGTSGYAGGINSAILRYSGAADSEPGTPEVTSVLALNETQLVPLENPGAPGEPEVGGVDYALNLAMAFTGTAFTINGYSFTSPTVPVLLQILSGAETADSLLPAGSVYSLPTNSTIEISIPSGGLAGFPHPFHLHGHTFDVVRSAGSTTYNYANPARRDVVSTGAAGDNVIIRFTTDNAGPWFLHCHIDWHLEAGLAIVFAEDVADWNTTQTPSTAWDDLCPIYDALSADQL

[2] = molecular target: T2, Lcc13 (Lentinula edodes, UniProt A0A0P0ZBE8); test: ABTS oxidation, absorbance at […] nm; format: biochemical; conditions: 1.25 mM ABTS; 50 mM sodium citrate pH 3.0; partially purified fraction P2-2
T2 construct: native, partially purified from sawdust medium (fraction P2-2), 61 kDa on SDS-PAGE
T2 sequence (A0A0P0ZBE8 20-520): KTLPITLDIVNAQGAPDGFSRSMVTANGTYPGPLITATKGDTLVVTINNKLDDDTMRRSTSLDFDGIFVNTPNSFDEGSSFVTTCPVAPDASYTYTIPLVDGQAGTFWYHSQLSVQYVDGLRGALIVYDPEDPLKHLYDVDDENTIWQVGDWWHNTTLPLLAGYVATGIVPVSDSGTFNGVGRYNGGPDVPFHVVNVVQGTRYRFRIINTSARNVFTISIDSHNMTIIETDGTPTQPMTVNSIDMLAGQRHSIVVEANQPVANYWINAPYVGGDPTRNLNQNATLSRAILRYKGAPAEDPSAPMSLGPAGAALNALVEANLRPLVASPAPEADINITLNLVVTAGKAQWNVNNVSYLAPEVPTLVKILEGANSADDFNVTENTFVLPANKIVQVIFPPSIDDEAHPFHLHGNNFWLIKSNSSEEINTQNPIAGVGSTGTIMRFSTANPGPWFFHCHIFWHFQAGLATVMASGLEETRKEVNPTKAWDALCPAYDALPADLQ

SMILES: CCn1c(=NN=c2sc3cc(S(=O)(=O)O)ccc3n2CC)sc2cc(S(=O)(=O)O)ccc21 [ABTS, 2,2-azino-bis (3-ethylbenzothiazoline-6-sulfonic acid) diammonium salt]
- ABTS oxidation, absorbance at 420 nm [1]: the Lcc purification was performed based on the enzymatic activity for ABTS
- ABTS oxidation, absorbance at 420 nm [2]: the Lcc purification was performed based on the enzymatic activity for ABTS
